Data from US12428403B2, “N-(heterocyclyl and heterocyclylalkyl)-3-benzylpyridin-2-amine derivatives as SSTR4 agonists” (Takeda Pharmaceutical Company Limited, priority 2020, dated 2025).

Key:
[1] = target: T1, SSTR4 (Homo sapiens, UniProt P31391); test: cell-based
Description: This cell-based assay measures the ability of compounds to inhibit forskolin stimulated cAMP in CHO-K1 cells overexpressing SSTR4. CHO-K1 cells overexpressing SSTR4 (CHO-SSTR4) are purchased from DiscoveRx (product code 95-0059C2). The CHO-SSTR4 cells are maintained in F12K media with 10% Fetal Bovine Serum (Hyclone), 1% Pen/Strep (Life Technologies), and 800 μg/mL G418 (Life Technologies). To perform the assay, 3000 cells are plated per well in white 384-well plate (Corning 3570) in 50 complete media and the cells are allowed to attach for 16 hours in a 37° C., 5% CO2 incubator. The next day, the culture media is removed from the cells and the cells are washed (added then removed) with Krebs Ringer Buffer (ZenBio, KRB-1000 mL). Test compounds are suspended in DMSO and diluted in stimulation buffer: Krebs Ringer Buffer plus 0.5% BSA (Roche), 300 μM IBMX (Sigma), and 350 nM forskolin (Sigma). The cells are incubated in 10 μL compound/stimulation buffer for 30 minutes at room temperature. Cellular cAMP levels are detected with a HTRF LANCE Ultra cAMP kit (Perkin Elmer, catalog number TRF0264).
The assay is performed in accordance with the manufacturer's instructions. Five μL of diluted Eu-W8044 labeled streptavidin (dilution: 1:50 in cAMP Detection Buffer) is added to each well. Then 5 μL of diluted biotin cAMP (dilution: 1:150 in cAMP Detection Buffer) is added to each well. The plates are covered and allowed to incubate for 60 minutes at room temperature on a shaker. HTRF (665 nm/615 nm) is read on a Perkin Elmer ENVISION plate reader. The pEC50 values are generated using Activity Base for Screening Data Management.

[2] = target: SSTR1 (Homo sapiens, UniProt P30872); test: biochemical;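 note: competitive binding to membranes of CHO-K1 cells overexpressing SSTR1, incubated 60 min at room temperature, radioactivity read by scintillation counting after filtration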
Description: SSTR1 I-125 Somatostatin Competition Binding Assay for Selectivity Versus SSTR1
Membranes from CHO-K1 cells overexpressing SSTR1 are purchased from Perkin Elmer (catalog number ES-520-M400UA). Test compounds are suspended in DMSO and then diluted in assay buffer (25 mM HEPES pH 7.4, 10 mM MgCl2, 1 mM CaCl2, 0.5% BSA) plus 0.4 nM I-125 labeled somatostatin (Perkin Elmer catalog number NEX389). […] Then 10 μg of SSTR1 membranes in 50 μL assay buffer are added per well. The plate is incubated for 60 minutes at room temperature. […] The contents of the assay plate are transferred to filters with a TomTech harvester and washed 5 times with 20 mM HEPES, 100 mM NaCl. […] The scintillator sheets are melted to the filters using a heat block. The filters are then read in a MicroBeta scintillation counter. Binding Ki curves are generated using Activity Base for Screening Data Management and the results are reported as pIC50.

[3] = target: T1, SSTR4; test: SSTR4 I-125 somatostatin competition binding assay (CHO-K1 membranes); set-up: host or cells: CHO-K1; conditions: competition with I-125 labeled somatostatin, membranes from CHO-K1 overexpressing SSTR4; read-out: SSTR4 Binding pIC50 (converted)
Description: SSTR4I-125 Somatostatin Competition Binding Assay
Membranes from CHO-K1 cells overexpressing SSTR4 are purchased from Perkin Elmer (catalog number ES-524-M400UA). […] The scintillator sheets are melted to filters using a heat block.
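Throughout, for EC50: CHO-K1 cells overexpressing SSTR4, reduction of forskolin-driven cAMP after 30 min compound exposure at room temperature, cAMP read by HTRF LANCE Ultra kit.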

Sequence of SSTR1 (P30872 whole entry): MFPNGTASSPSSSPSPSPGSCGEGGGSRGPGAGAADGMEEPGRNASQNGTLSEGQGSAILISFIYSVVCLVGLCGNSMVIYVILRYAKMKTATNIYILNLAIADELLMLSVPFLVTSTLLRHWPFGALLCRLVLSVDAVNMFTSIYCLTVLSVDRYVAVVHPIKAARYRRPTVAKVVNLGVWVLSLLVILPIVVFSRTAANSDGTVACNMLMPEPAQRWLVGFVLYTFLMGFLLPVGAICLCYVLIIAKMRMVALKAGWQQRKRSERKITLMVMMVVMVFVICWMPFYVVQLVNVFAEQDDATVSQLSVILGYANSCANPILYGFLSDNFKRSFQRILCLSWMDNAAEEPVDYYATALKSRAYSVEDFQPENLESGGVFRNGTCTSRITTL
T1 sequence (P31391 whole entry): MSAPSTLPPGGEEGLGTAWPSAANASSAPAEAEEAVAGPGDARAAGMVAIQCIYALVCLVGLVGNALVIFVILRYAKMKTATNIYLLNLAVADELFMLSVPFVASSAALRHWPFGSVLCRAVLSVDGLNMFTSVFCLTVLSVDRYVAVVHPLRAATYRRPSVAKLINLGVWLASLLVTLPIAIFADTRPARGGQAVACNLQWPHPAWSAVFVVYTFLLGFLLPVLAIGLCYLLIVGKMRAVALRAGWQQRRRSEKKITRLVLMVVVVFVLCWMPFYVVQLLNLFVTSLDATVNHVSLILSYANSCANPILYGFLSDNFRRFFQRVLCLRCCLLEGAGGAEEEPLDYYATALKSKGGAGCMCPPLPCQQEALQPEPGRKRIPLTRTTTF

EC50 [1] [nM] | IC50 [2] [nM] | IC50 [3] [nM] | SMILES
29.5 | 2630 | 110 | Cc1cnc(-c2cnc(NCCN3CCCC3)c(C(C)c3ccc(F)cc3)n2)o1 (stereo not drawn) [Example 126, 3-(1-(4-fluorophenyl)ethyl)-5-(5-methyloxazol-2-yl)-N-(2-(pyrrolidin-1-yl)ethyl)pyrazin-2-amine]
10 | 2290 | 35.5 | Cc1cnc(-c2nc(C(C)c3ccc(F)cc3)c(NCCN3CCCC3)nc2C)o1 (stereo not drawn) [Example 129, 3-(1-(4-fluorophenyl)ethyl)-6-methyl-5-(5-methyloxazol-2-yl)-N-(2-(pyrrolidin-1-yl)ethyl)pyrazin-2-amine]
1.95 | 47900 | 28.2 | Cc1nnc(C(C)c2ccc(F)cc2)c(NCCN2CCC2)n1 (stereo not drawn) [Example 132, N-(2-(azetidin-1-yl)ethyl)-6-(1-(4-fluorophenyl)ethyl)-3-methyl-1,2,4-triazin-5-amine]
16.2 | 5010 | 89.1 | Fc1ccc(Cc2nnc(C3CC3)nc2NCCN2CCC2)cc1 [Example 138, N-(2-(azetidin-1-yl)ethyl)-3-cyclopropyl-6-(4-fluorobenzyl)-1,2,4-triazin-5-amine]
4.27 | 10000 | 49 | Cc1nnc(C(C)c2ccccc2)c(NCCN2CCC2)n1 (stereo not drawn) [Example 143, N-(2-(azetidin-1-yl)ethyl)-3-methyl-6-(1-phenylethyl)-1,2,4-triazin-5-amine]
10 | 15100 | 42.7 | Cc1cccc(Cc2nnc(C)nc2NCCN2CCC2)c1 [Example 148, N-(2-(azetidin-1-yl)ethyl)-3-methyl-6-(3-methylbenzyl)-1,2,4-triazin-5-amine]

Continued, molecule first:

SMILES | EC50 [1] [nM] | IC50 [2] [nM] | IC50 [3] [nM]
CC(c1ccc(F)cc1)c1nccnc1NCCN1CCCC1 (stereo not drawn) [Example 119, 3-(1-(4-fluorophenyl)ethyl)-N-(2-(pyrrolidin-1-yl)ethyl)pyrazin-2-amine] | 8.71 | 12000 | 151
CC(c1ccc(F)cc1)c1nc(-c2ncco2)cnc1NCCN1CCCC1 (stereo not drawn) [Example 123, 3-(1-(4-fluorophenyl)ethyl)-5-(oxazol-2-yl)-N-(2-(pyrrolidin-1-yl)ethyl)pyrazin-2-amine] | 20.9 | 3310 | 123
CC(c1ccc(F)cc1)c1nc(-c2nccn2C)cnc1NCCN1CCCC1 (stereo not drawn) [Example 124, 3-(1-(4-fluorophenyl)ethyl)-5-(1-methyl-1H-imidazol-2-yl)-N-(2-(pyrrolidin-1-yl)ethyl)pyrazin-2-amine] | 36.3 | 3470 | 245
CC(c1ccc(F)cc1)c1nc(-c2nccs2)cnc1NCCN1CCCC1 (stereo not drawn) [Example 125, 3-(1-(4-fluorophenyl)ethyl)-N-(2-(pyrrolidin-1-yl)ethyl)-5-(thiazol-2-yl)pyrazin-2-amine] | 42.7 | 1230 | 38
